Where two headings read alike, the source gives them in different places.
Tests used:
[1] = in vivo; cited from earlier work
[2] = cited from earlier work; for safety / side effect profile compared to ibuprofen: published studies, incl. pediatric population
[3] = test system: Hereditary Spastic Paraparesis, homozygous TECPR2 mutations; assay: Treatment of a patient with Hereditary Spastic Paraparesis (Example 2); assay type: in vivo; conditions: human patient, daily oral doses, after 30 days of treatment
Procedure: A human patient is tested and found to be homozygous for TECPR2 mutations and suffering from neurodegenerative issues related to Hereditary Spastic Paraparesis. The patient is given daily oral doses of dexibuprofen to reduce the effects of the disease.

## CC(C)Cc1ccc(C(C)C(=O)O)cc1 (stereo not drawn) [ibuprofen]
[1]
  crossing of the blood brain barrier (BBB): crosses the blood brain barrier

## CC(C)Cc1ccc([C@H](C)C(=O)O)cc1 [Dexibuprofen, (S)-a-methyl-4-(2-methylpropyl)benzeneacetic acid]
[2]; in vivo
  safety profile compared to acetaminophen: superior safety profile to acetaminophen
[2]
  safety / side effect profile compared to ibuprofen: extremely similar to ibuprofen
[2]; listed as dexibuprofen
  safety / side effect profile compared to ibuprofen: did not note safety differences
[1]
  crossing of the blood brain barrier (BBB): crosses the blood brain barrier
[3]
  neurodegenerative issues relating to TECPR2 mutations: reduced neurodegenerative issues
